Where a SMILES comes first, the peptide text is derived from it. Where no end group is shown, it is not given here. [ ]: non-standard residue; d: D form. Orn = NCCC[C@H](N)C(=O)O; Nva = CCC[C@H](N)C(=O)O
What was measured:
HLA-A*0201 = HLA-A*0201 (Homo sapiens, UniProt P04439, D140Y/D185E/D98H/E176V/E277Q/G131W/G231S/I119V/I121R/I166T/I218V/L300P/L318F/N151K/N90K/P208A/P217A/Q86G/Q94H/R138H/R169H/T345S); experiment: ED50 (M)
[1] = system: T cell lines specific for the native epitope (PRAME425-433); experiment: Cross-reactivity of PRAME 425-433 analogs: IFN-gamma secretion from T cell lines specific for the native epitope; type: cell-based, HHD transgenic mice; details: analog peptide at approximately 0.3 μM
Method: The analogs listed in FIGS. 26-28 were tested for various properties such as improved affinity and stability of binding, cross-reactivity with the native epitope, and immunogenicity as follows in Examples 40-48. […] The observed affinities of the analogs are reported as % binding (compared to the positive control) and ED50s. Stability of binding as half time of dissociation. Cross reactivity with the native epitope was assessed by using the analog peptides to stimulate IFG-gamma secretion from a T cell lines specific for the native epitope, essentially as described in Example 6. The data shown in FIGS. 26-28 were generated by stimulating with analog peptide at approximately 0.3 μM. […] In some cases the reported values are the average of two determinations.

[2] = system: T cells specific for the wild-type NY-ESO-1157-165 epitope; experiment: Cross-reactivity and functional avidity of NY-ESO-1 157-165 analogs (IFN-gamma, T cells specific for the wild-type epitope); type: cell-based, HHD transgenic mice; details: IFN-gamma production ex vivo
HLA-A*0201 on T2 cells = target: T1, HLA-A*0201 on T2 cells (human); experiment: T2 cell binding assay (flow cytometry)
T1 construct: Class I MHC stabilised on T2 cells by added peptide, detected with a fluorescent anti-A2 antibody; also called HLA-A2; MHC class I (A2 allele)

Molecule	EC50 (HLA-A*0201)	also measured
CCC[C@H](NC(=O)CNC(=O)[C@@H](NC(=O)[C@H](CC(C)C)NC(=O)[C@H](Cc1c[nH]cn1)NC(=O)[C@H](CCC(N)=O)NC(=O)[C@H](CC(C)C)NC(=O)[C@H](CC(C)C)NC(=O)[C@@H](N)CO)[C@@H](C)CC)C(=O)O [18 | Prame 425-433 (L433(Nva))] (H-SLLQHLIG[Nva]-OH; N-terminus and C-terminus assumed)	1660 nM	–
TLLQHLIGL [11 | Prame 425-433 (S425T)]	1450 nM	–
SMLQHLIGL [3 | Prame 425-433 (L426M)]	988 nM	–
Lys P1 analog: PRAME 425-433 analog with Lys for the Ser at the P1 position (KLLQHLIGL; UniProt P78395 425-433, looked up, variant S425K)	–	IFN-γ elicited, as percent of the native peptide [1]: 40%
NY-ESO-1157-166: 10-mer of the wild-type NY-ESO-1 sequence, residues 157-166 (SLLMWITQCF; UniProt P78358 157-166, looked up, fragment)	–	Activity in the cross-reactivity/functional avidity assay relative to wild-type NY-ESO-1 157-165, in words [2]: showed no immunological activity
CC[C@H](C)[C@H](NC(=O)[C@H](CC(C)C)NC(=O)[C@H](Cc1c[nH]cn1)NC(=O)[C@H](CCC(N)=O)NC(=O)[C@H](CC(C)C)NC(=O)[C@H](CC(C)C)NC(=O)[C@@H](N)CCCN)C(=O)NCC(=O)N[C@@H](CC(C)C)C(=O)O [12 | Prame 425-433 (S425(Orn))] (H-[Orn]LLQHLIGL-OH; N-terminus and C-terminus assumed)	2250 nM	–
FLLQHLIGL [9 | Prame 425-433 (S425F)]	434 nM	–
YLLQHLIGL [10 | Prame 425-433 (S425Y)]	550 nM	–
CCC[C@H](NC(=O)[C@@H](N)CO)C(=O)N[C@@H](CC(C)C)C(=O)N[C@@H](CCC(N)=O)C(=O)N[C@@H](Cc1c[nH]cn1)C(=O)N[C@@H](CC(C)C)C(=O)N[C@H](C(=O)NCC(=O)N[C@@H](CC(C)C)C(=O)O)[C@@H](C)CC [6 | Prame 425-433 (L426(Nva)), S(Nva)LQHLIGL] (H-S[Nva]LQHLIGL-OH; N-terminus and C-terminus assumed)	1910 nM	–
KVSEKIFYX (C-terminal amide) [SSX-2 41-49-NH2 (A42V)]	–	binding result (HLA-A*0201 on T2 cells): no binding
